The text below walks through data of PubChem BioAssay AID180 (DTP/NCI, 2004).

The structures appear in SMILES notation. Several values for one entry are separate records, joined by “and”; a condition that tells them apart may be missing. Equal values may be shown once.

The test relates to BDF1 mice, Adenocarcinoma 755 s.c., tumor weight T/C. Description: NCI In Vivo Anticancer Drug Screen. Data for tumor model Adenocarcinoma 755 (subcutaneous) in B6D2F1 (BDF1) mice. The note with it: endpoint: mean tumor weight, higher = larger tumour. The procedure:
The antitumor activity of compounds was measured in mice bearing transplantable tumors. Survival or tumor size were measured and the results are expressed as the measurement made in the treated group (T) divided by the measurement made in the vehicle treated control group (C). The tumor model used in this assay is Adenocarcinoma 755 (subcutaneous) in B6D2F1 (BDF1) mice

The mark [1] stands for this setting: dose: 15.0 mg/kg/injection, schedule: Q01DX011 (ip), vehicle: methylcellulose (MC).
Where [2] appears, read: dose: 1.0 mg/kg/injection, schedule: Q01DX011 (ip), vehicle: carboxymethylcellulose (CMC).
The mark [3] stands for this setting: dose: 25.0 mg/kg/injection, schedule: Q01DX011 (ip), vehicle: methylcellulose (MC).

What is called T/C is the ratio of treated to control. `C=CC(O)CN1CC1=C` (stereo not drawn) (tested in a mixture with another compound): the T/C is, setting by setting: (dose: 1.9 mg/kg/injection, schedule: Q01DX011 (ip), vehicle: methylcellulose (MC)) 95 % of control; (dose: 3.75 mg/kg/injection, schedule: Q01DX011 (ip), vehicle: methylcellulose (MC)) 121 % of control; (dose: 7.5 mg/kg/injection, schedule: Q01DX011 (ip), vehicle: methylcellulose (MC)) 106 % of control; under setting [1], 49 % of control.
Turning to `CC(=O)OCC1OC(n2cnc3c(=S)nc(N)[nH]c32)C(OC(C)=O)C1OC(C)=O` (stereo not drawn), the T/C was 86 % of control (dose: 0.1 mg/kg/injection, schedule: Q01DX011 (ip), vehicle: carboxymethylcellulose (CMC)); 77 % of control (dose: 0.2 mg/kg/injection, schedule: Q01DX011 (ip), vehicle: carboxymethylcellulose (CMC)); 69 % of control (dose: 0.5 mg/kg/injection, schedule: Q01DX011 (ip), vehicle: carboxymethylcellulose (CMC)); 11 % of control and 35 % of control under setting [2]; 26 % of control (dose: 1.5 mg/kg/injection, schedule: Q01DX011 (ip), vehicle: other); 3 % of control (dose: 3.0 mg/kg/injection, schedule: Q01DX011 (ip), vehicle: other).
As to `C(=N\OCCc1ccccc1)/c1cccnc1`, the T/C (dose: 88.0 mg/kg/injection, schedule: Q01DX011 (ip), vehicle: methylcellulose (MC)) is 70 % of control.
As for `Cc1cccc(-c2c3ccccc3cc3c2ccc2ccccc23)c1`, the T/C by setting is: (dose: 30.0 mg/kg/injection, schedule: Q01DX011 (ip), vehicle: methylcellulose (MC)) 96 % of control; (dose: 60.0 mg/kg/injection, schedule: Q01DX011 (ip), vehicle: methylcellulose (MC)) 76 % of control; (dose: 120.0 mg/kg/injection, schedule: Q01DX011 (ip), vehicle: methylcellulose (MC)) 79 % of control; (dose: 240.0 mg/kg/injection, schedule: Q01DX011 (ip), vehicle: methylcellulose (MC)) 119 % of control.
In the case of `c1ccc2c(c1)ccc1cc3c(ccc4ccccc43)cc12`, the T/C by setting is: (dose: 12.5 mg/kg/injection, schedule: Q01DX011 (ip), vehicle: methylcellulose (MC)) 24 % of control; under setting [3], 44 % of control; (dose: 25.0 mg/kg/injection, schedule: Q01DX011 (ip), vehicle: other) 60 % of control; (dose: 50.0 mg/kg/injection, schedule: Q01DX011 (ip), vehicle: other) 42 % of control; (dose: 100.0 mg/kg/injection, schedule: Q01DX011 (ip), vehicle: other) 36 % of control; (dose: 400.0 mg/kg/injection, schedule: Q01DX011 (ip), vehicle: methylcellulose (MC)) 24 % of control and 25 % of control. Besides, the T/C reads like this: (dose: 600.0 mg/kg/injection, schedule: Q01DX011 (ip), vehicle: methylcellulose (MC)) 31 % of control; (dose: 600.0 mg/kg/injection, schedule: Q01DX011 (ip), vehicle: other) 12 % of control.
As to `CC(=O)Oc1ccc2c(c1)CC[C@@H]1[C@@H]2CC[C@@]2(C)[C@H]1CC[C@]2(C)OC(C)=O`, the T/C by setting is: (dose: 31.0 mg/kg/injection, schedule: Q01DX011 (sc), vehicle: steriod suspending solution) 76 % of control; (dose: 62.5 mg/kg/injection, schedule: Q01DX011 (sc), vehicle: steriod suspending solution) 64 % of control; (dose: 125.0 mg/kg/injection, schedule: Q01DX011 (sc), vehicle: steriod suspending solution) 71 % of control; (dose: 250.0 mg/kg/injection, schedule: Q01DX011 (sc), vehicle: steriod suspending solution) 44 % of control.
Take `Nc1nc(SCc2ccccc2)c2ncn(C3OC(CO)C(O)C3O)c2n1` (stereo not drawn): the T/C was 10 % of control under setting [3]; 7 % of control (dose: 50.0 mg/kg/injection, schedule: Q01DX011 (ip), vehicle: methylcellulose (MC)); 8 % of control (dose: 75.0 mg/kg/injection, schedule: Q01DX011 (ip), vehicle: methylcellulose (MC)); 6 % of control (dose: 100.0 mg/kg/injection, schedule: Q01DX011 (ip), vehicle: methylcellulose (MC)).
In the case of `O=C(O)C(=O)c1ccc(-c2ccccc2)cc1`, the T/C is 99 % of control (dose: 3.7 mg/kg/injection, schedule: Q01DX011 (ip), vehicle: carboxymethylcellulose (CMC)); 100 % of control (dose: 7.5 mg/kg/injection, schedule: Q01DX011 (ip), vehicle: carboxymethylcellulose (CMC)); 87 % of control (dose: 15.0 mg/kg/injection, schedule: Q01DX011 (ip), vehicle: carboxymethylcellulose (CMC)).
Turning to `Cc1cc(Nc2ccc(CCO)cc2)nc(N)n1`, the T/C runs as follows: under setting [1], 64 % of control; (dose: 31.0 mg/kg/injection, schedule: Q01DX011 (ip), vehicle: methylcellulose (MC)) 75 % of control; (dose: 62.0 mg/kg/injection, schedule: Q01DX011 (ip), vehicle: methylcellulose (MC)) 77 % of control; (dose: 125.0 mg/kg/injection, schedule: Q01DX011 (ip), vehicle: methylcellulose (MC)) 85 % of control; (dose: 250.0 mg/kg/injection, schedule: Q01DX011 (ip), vehicle: methylcellulose (MC)) 73 % of control.
For `Nc1ncnc2c1nc(Br)n2C1OC(CO)C(O)C1O` (stereo not drawn), the T/C (dose: 30.0 mg/kg/injection, schedule: Q01DX011 (ip), vehicle: carboxymethylcellulose (CMC)) was 117 % of control and the T/C (dose: 120.0 mg/kg/injection, schedule: Q01DX011 (ip), vehicle: carboxymethylcellulose (CMC)) is 109 % of control.
For the compound `On1cnc(=S)c2[nH]cnc21`, for the setting “dose: 125.0 mg/kg/injection, schedule: Q01DX011 (ip), vehicle: carboxymethylcellulose (CMC)”, the T/C is 5 % of control.
As for `Nc1nc(SC2CCCCC2)c2[nH]cnc2n1`, the T/C is 60 % of control under setting [2]; 83 % of control (dose: 5.0 mg/kg/injection, schedule: Q01DX011 (ip), vehicle: carboxymethylcellulose (CMC)); 4 % of control and 9 % of control (dose: 20.0 mg/kg/injection, schedule: Q01DX011 (ip), vehicle: carboxymethylcellulose (CMC)); 1 % of control (dose: 40.0 mg/kg/injection, schedule: Q01DX011 (ip), vehicle: carboxymethylcellulose (CMC)); 1 % of control (dose: 80.0 mg/kg/injection, schedule: Q01DX011 (ip), vehicle: carboxymethylcellulose (CMC)); 2 % of control (dose: 160.0 mg/kg/injection, schedule: Q01DX011 (ip), vehicle: carboxymethylcellulose (CMC)).
